# Assay results: PubChem BioAssay AID2060357 (Molecular Pharmacology Branch, DTP, NCI, 2025)
# “And” between values parts separate entries of the source, which are not always exact repeats. Equal values may be shown once.
# Tested on: 292921-168-R-J2-PDC spheroids with HUVEC/MSC, viability
# Test: Anticancer human tumor 292921-168-R-J2-PDC patient-derived pancreatic carcinoma cell line growth inhibition [TAK]
# Conditions: for viability, T/C: stronger effect = lower value
# How it was run: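 Drug combinations, each paired with TAK-243 or ipatasertib, were tested on multi-cell spheroids of 60% malignant cells, 25% HUVEC and 15% hMSC. Top concentrations were at or near the clinical Cmax (10 microM if undetermined), decreasing by half-log; viability is given as % test/control.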
# [1] = curve of first compound, second compound 0.3 µM
# [2] = curve of first compound, second compound 0.949 µM
# [3] = curve of first compound, second compound 3 µM
# [4] = curve of first compound, second compound 9.49 µM
# [5] = curve of first compound, second compound 30 µM
# [6] = second compound 0.3 µM, first compound 0.0316 µM
# [7] = second compound 0.3 µM, first compound 0.1 µM
# [8] = second compound 0.3 µM, first compound 0.316 µM
# [9] = second compound 0.3 µM, first compound 1 µM
# [10] = second compound 0.3 µM, first compound 3.16 µM
# [11] = second compound 0.3 µM, first compound 10 µM
# [12] = second compound 0.949 µM, first compound 0.0316 µM
# [13] = second compound 0.949 µM, first compound 0.1 µM
# [14] = second compound 0.949 µM, first compound 0.316 µM
# [15] = second compound 0.949 µM, first compound 1 µM
# [16] = second compound 0.949 µM, first compound 3.16 µM
# [17] = second compound 0.949 µM, first compound 10 µM
# [18] = second compound 3 µM, first compound 0.0316 µM
# [19] = second compound 3 µM, first compound 0.1 µM
# [20] = second compound 3 µM, first compound 0.316 µM
# [21] = second compound 3 µM, first compound 1 µM
# [22] = second compound 3 µM, first compound 3.16 µM
# [23] = second compound 3 µM, first compound 10 µM
# [24] = second compound 9.49 µM, first compound 0.0316 µM
# [25] = second compound 9.49 µM, first compound 0.1 µM
# [26] = second compound 9.49 µM, first compound 0.316 µM
# [27] = second compound 9.49 µM, first compound 1 µM
# [28] = second compound 9.49 µM, first compound 3.16 µM
# [29] = second compound 9.49 µM, first compound 10 µM
# [30] = second compound 30 µM, first compound 0.0316 µM
# [31] = second compound 30 µM, first compound 0.1 µM
# [32] = second compound 30 µM, first compound 0.316 µM
# [33] = second compound 30 µM, first compound 1 µM
# [34] = second compound 30 µM, first compound 3.16 µM
# [35] = second compound 30 µM, first compound 10 µM
# [36] = second compound 0.3 µM, first compound 0.000316 µM
# [37] = second compound 0.3 µM, first compound 0.001 µM
# [38] = second compound 0.3 µM, first compound 0.00316 µM
# [39] = second compound 0.3 µM, first compound 0.01 µM
# [40] = second compound 0.949 µM, first compound 0.000316 µM
# [41] = second compound 0.949 µM, first compound 0.001 µM
# [42] = second compound 0.949 µM, first compound 0.00316 µM
# [43] = second compound 0.949 µM, first compound 0.01 µM
# [44] = second compound 3 µM, first compound 0.000316 µM
# [45] = second compound 3 µM, first compound 0.001 µM
# [46] = second compound 3 µM, first compound 0.00316 µM
# [47] = second compound 3 µM, first compound 0.01 µM
# [48] = second compound 9.49 µM, first compound 0.000316 µM
# [49] = second compound 9.49 µM, first compound 0.001 µM
# [50] = second compound 9.49 µM, first compound 0.00316 µM
# [51] = second compound 9.49 µM, first compound 0.01 µM
# [52] = second compound 30 µM, first compound 0.000316 µM
# [53] = second compound 30 µM, first compound 0.001 µM
# [54] = second compound 30 µM, first compound 0.00316 µM
# [55] = second compound 30 µM, first compound 0.01 µM
# 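Note: spheroids exposed to drugs for seven days before readout.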
smiles,measurement,setting,value
Cc1nc(NC(=O)N2CCCC2C(N)=O)sc1-c1ccnc(C(C)(C)C(F)(F)F)c1 (centres undefined) + CC(C)NCC(C(=O)N1CCN(c2ncnc3c2C(C)CC3O)CC1)c1ccc(Cl)cc1,IC50,[1],0.295 µM
same,IC50,[2],0.185 µM
same,IC50,[3],0.184 µM
same,IC50,[4],0.0708 µM
same,IC50,[5],< 0.0316 µM
same,"viability, T/C",[6],75.5%
same,"viability, T/C",[7],67.2%
same,"viability, T/C",[8],47.2%
same,"viability, T/C",[9],34.2%
same,"viability, T/C",[10],26.2%
same,"viability, T/C",[11],20%
same,"viability, T/C",[12],78.5%
same,"viability, T/C",[13],58.4%
same,"viability, T/C",[14],42.8%
same,"viability, T/C",[15],30.5%
same,"viability, T/C",[16],24.1%
same,"viability, T/C",[17],19.6%
same,"viability, T/C",[18],68.5%
same,"viability, T/C",[19],61.7%
same,"viability, T/C",[20],39.3%
same,"viability, T/C",[21],27.1%
same,"viability, T/C",[22],23.4%
same,"viability, T/C",[23],15.3%
same,"viability, T/C",[24],59.8%
same,"viability, T/C",[25],46.8%
same,"viability, T/C",[26],27.8%
same,"viability, T/C",[27],21.1%
same,"viability, T/C",[28],17.8%
same,"viability, T/C",[29],12.7%
same,"viability, T/C",[30],41.1%
same,"viability, T/C",[31],33.2%
same,"viability, T/C",[32],23.9%
same,"viability, T/C",[33],16.4%
same,"viability, T/C",[34],13.4%
same,"viability, T/C",[35],9.1%
Cn1cnc2c(F)c(Nc3ccc(Br)cc3Cl)c(C(=O)NOCCO)cc21,"viability, T/C",compound 0.00949 µM,57.2% and 47.3%
same,"viability, T/C",compound 0.03 µM,40.2% and 34.1%
same,"viability, T/C",compound 0.0949 µM,33.8% and 27.4%
same,"viability, T/C",compound 0.3 µM,31% and 24.2%
same,"viability, T/C",compound 0.949 µM,25.6% and 21.6%
same,"viability, T/C",compound 3 µM,15.3% and 11.8%
same,IC50,curve of compound,0.0158 µM and < 0.00949 µM
CC(C)CC(NC(=O)C(Cc1ccccc1)NC(=O)c1cnccn1)B(O)O (centres undefined),"viability, T/C",compound 31.6 pM,99.4% and 103%
same,"viability, T/C",compound 0.0001 µM,102%
same,"viability, T/C",compound 0.000316 µM,104% and 107%
same,"viability, T/C",compound 0.001 µM,96.7% and 104%
same,"viability, T/C",compound 0.00316 µM,88.3% and 74.9%
same,"viability, T/C",compound 0.01 µM,7.89% and 7.64%
same,IC50,curve of compound,0.00546 µM and 0.00485 µM
CC(C)(C)c1nc(-c2cccc(NS(=O)(=O)c3c(F)cccc3F)c2F)c(-c2ccnc(N)n2)s1 + CC(C)NCC(C(=O)N1CCN(c2ncnc3c2C(C)CC3O)CC1)c1ccc(Cl)cc1,IC50,[1],2.27 µM
same,IC50,[2],1.8 µM
same,IC50,[3],1.25 µM
same,IC50,[4],0.682 µM
same,IC50,[5],< 0.0316 µM
same,"viability, T/C",[6],94.8%
same,"viability, T/C",[7],94.7%
same,"viability, T/C",[8],88.7%
same,"viability, T/C",[9],74.2%
same,"viability, T/C",[10],40.1%
same,"viability, T/C",[11],20.5%
same,"viability, T/C",[12],85.2%
same,"viability, T/C",[13],92%
same,"viability, T/C",[14],80.5%
same,"viability, T/C",[15],66.9%
same,"viability, T/C",[16],34.2%
same,"viability, T/C",[17],17.9%
same,"viability, T/C",[18],83.4%
same,"viability, T/C",[19],85.9%
same,"viability, T/C",[20],77.4%
same,"viability, T/C",[21],55.2%
same,"viability, T/C",[22],27.5%
same,"viability, T/C",[23],15.8%
same,"viability, T/C",[24],72.5%
same,"viability, T/C",[25],70.8%
same,"viability, T/C",[26],64.7%
same,"viability, T/C",[27],42.5%
same,"viability, T/C",[28],22.7%
same,"viability, T/C",[29],15.2%
same,"viability, T/C",[30],46.5%
same,"viability, T/C",[31],49.8%
same,"viability, T/C",[32],44.1%
same,"viability, T/C",[33],35.6%
same,"viability, T/C",[34],19.8%
same,"viability, T/C",[35],14.1%
CC(C)CC(NC(=O)CNC(=O)c1cc(Cl)ccc1Cl)B1OC(=O)CC(CC(=O)O)(C(=O)O)O1 (centres undefined) + CC(C)NCC(C(=O)N1CCN(c2ncnc3c2C(C)CC3O)CC1)c1ccc(Cl)cc1,IC50,[1],0.0276 µM
same,IC50,[2],0.0239 µM
same,IC50,[3],0.0237 µM
same,IC50,[4],0.0179 µM
same,IC50,[5],< 0.000316 µM
same,"viability, T/C",[36],91.7%
same,"viability, T/C",[37],86.2%
same,"viability, T/C",[38],88.8%
same,"viability, T/C",[39],86.2%
same,"viability, T/C",[6],45.2%
same,"viability, T/C",[7],10.8%
same,"viability, T/C",[40],84.6%
same,"viability, T/C",[41],85.8%
same,"viability, T/C",[42],85.2%
same,"viability, T/C",[43],85.5%
same,"viability, T/C",[12],38.8%
same,"viability, T/C",[13],11%
same,"viability, T/C",[44],75.8%
same,"viability, T/C",[45],80.2%
same,"viability, T/C",[46],73.3%
same,"viability, T/C",[47],80.2%
same,"viability, T/C",[18],40.9%
same,"viability, T/C",[19],9.38%
same,"viability, T/C",[48],62%
same,"viability, T/C",[49],60.3%
same,"viability, T/C",[50],60.4%
same,"viability, T/C",[51],68.2%
same,"viability, T/C",[24],37.6%
same,"viability, T/C",[25],6.83%
same,"viability, T/C",[52],41.4%
same,"viability, T/C",[53],41.2%
same,"viability, T/C",[54],42.4%
same,"viability, T/C",[55],44.2%
same,"viability, T/C",[30],31.8%
same,"viability, T/C",[31],7.05%
COC1CC2CCC(C)C(O)(O2)C(=O)C(=O)N2CCCCC2C(=O)OC(C(C)CC2CCC(OCCO)C(OC)C2)CC(=O)C(C)C=C(C)C(O)C(OC)C(=O)C(C)CC(C)C=CC=CC=C1C (centres undefined) + CC(C)NCC(C(=O)N1CCN(c2ncnc3c2C(C)CC3O)CC1)c1ccc(Cl)cc1,IC50,[1],0.00501 µM
same,IC50,[2],0.00477 µM
same,IC50,[3],0.00141 µM
same,IC50,[4],< 0.000316 µM
same,IC50,[5],< 0.000316 µM
same,"viability, T/C",[36],64.3%
same,"viability, T/C",[37],56.9%
same,"viability, T/C",[38],49.4%
same,"viability, T/C",[39],50.6%
same,"viability, T/C",[6],45.3%
same,"viability, T/C",[7],46.1%
same,"viability, T/C",[40],65.7%
same,"viability, T/C",[41],59.9%
same,"viability, T/C",[42],50.2%
same,"viability, T/C",[43],46.6%
same,"viability, T/C",[12],44.9%
same,"viability, T/C",[13],45.2%
same,"viability, T/C",[44],60%
same,"viability, T/C",[45],53.3%
same,"viability, T/C",[46],45.1%
same,"viability, T/C",[47],42.4%
same,"viability, T/C",[18],43.8%
same,"viability, T/C",[19],41.6%
same,"viability, T/C",[48],47.9%
same,"viability, T/C",[49],39.8%
same,"viability, T/C",[50],35.7%
same,"viability, T/C",[51],33.2%
same,"viability, T/C",[24],32.7%
same,"viability, T/C",[25],32.9%
same,"viability, T/C",[52],33.4%
same,"viability, T/C",[53],30.6%
same,"viability, T/C",[54],29%
same,"viability, T/C",[55],26.3%
same,"viability, T/C",[30],26.2%
same,"viability, T/C",[31],24.3%
